Assay results as given in patent publication US5662929A, “Therapeutic liposomal formulation” (Universite de Montreal, priority 1994, dated 1997).

How the values were obtained:
[1] = tested on: Pseudomonas aeruginosa PA 508 (mucoid phenotype); experiment: Bactericidal effect in chronic pulmonary infection, rat (Table 3 experiment); type: in vivo, P. aeruginosa in Sprague-Dawley rats
Method: Different liposomal formulations were prepared according to Example 1 and analyzed by differential scan colorimetry. Using differential scan calorimetry, the temperatures of phase transition (Tc) were calculated for the tobramycin-liposomal formulations listed in Table 1. All these formulations were then tested in vitro to assess the antibiotic kinetics of liberation from the liposomes. In addition, these formulations were tested in a non-infected mouse model as previously described (Omri et al. 1994, Antimicrob. Agents Chemother. 38:1090-1095) to assess the persistence of the liposomes in the lung. Only the DPPC/DMPG 10:1, 15:1 and DSPC. […] These liposomal formulations were further tested in animal model of chronic pulmonary infection to examine their antibacterial efficacy. […] Of note, the addition of cholesterol to the formulation described in Table 1 brought the Tc to a minimum value of 60° C. Such formulations were incompatible with modulation of gradual antibiotic liberation and suitable interactions with bacteria. Thus, in order to maintain the desired characteristic of the liposome formulation, a low rigidity of the liposomes seems required. This low rigidity can be achieved by maintaining a low temperature of phase transition (below the body temperature of the animal to which the formulation is to be administered) and avoiding the use of cholesterol in the formulation.
(§1) To evaluate the bactericidal efficacy of a liposomal aminoglycoside formulation produced according to the present invention, male, pathogen-free, Sprague-Dawley rats weighing 175 to 225 g (Charles River) were used. Chronic infection in lungs was established by intratracheal administration of 5×10^5 CFU of Pseudomonas aeruginosa PA 508 (mucoid phenotype) prepared in agar beads. It is to be pointed out that this rat model for chronic pulmonary infection is widely recognized as the most appropriate animal model for chronic pulmonary infections in human CF patients. After 3 days, three doses (600 ug) of free or liposome-encapsulated tobramycin were given intratracheally at intervals of 16 h. The lipid mixture were DPPC:DMPG at a molar ratio of 10:1 (formula no 1) and DPPC:DMPC at a molar ratio of 15:1 (formula no 2). Sixteen hours after the last treatment, the animals were sacrificed and the entire lungs were removed aseptically, weighed and homogenized as described previously for mice. Serial 10-fold dilutions of the homogenates in cold PBS were made and spread in triplicate on proteose peptone agar plates. Identification of P. aeruginosa was confirmed by specific cultures. CFU were counted after 24-h incubations at 37° C. under 5% CO^2. Counts were expressed in log CFU per pair of lungs. PBS and PBS-liposomes were used as controls.

[2] = Pulmonary retention / tobramycin levels after intratracheal administration in non-infected mice; type: in vivo, BALB/c mice; conditions: 200 ug intratracheal, HPLC
Method: Using differential scan calorimetry, the temperatures of phase transition (Tc) were calculated for the tobramycin-liposomal formulations listed in Table 1. All these formulations were then tested in vitro to assess the antibiotic kinetics of liberation from the liposomes. […] These liposomal formulations were further tested in animal model of chronic pulmonary infection to examine their antibacterial efficacy.
Lungs and kidneys were removed aseptically, weighed, and then homogenized in cold sterile PBS (40% [wt/vol]) for 30 s with a Polytron homogenizer. Tobramycin levels in both homogenized tissues and sera were measured by HPLC. Groups of three mice were used for each time value.

[3] = tested on: P. aeruginosa; experiment: Bactericidal effect in infected rat lung tissues, second experiment (Table 4); type: in vivo, P. aeruginosa in Sprague-Dawley rats; conditions: two doses of 240 ug
From the text: as §1, with “After 3 days, three doses (600 ug) of free or liposome-encapsulated tobramycin were given intratracheally at intervals of 16 h.” left out, “controls. […]” for “controls.”

NC[C@H]1O[C@H](O[C@H]2[C@H](O)[C@@H](O[C@H]3O[C@H](CO)[C@@H](O)[C@H](N)[C@H]3O)[C@H](N)C[C@@H]2N)[C@H](N)C[C@@H]1O [free tobramycin, tobramycin]
bacteria enumerated ([1]; free antibiotic, see below): 10^7 c.f.u. | antibacterial efficacy in chronic pulmonary infection model (in words) ([1]; rat, compared with free antibiotic): no or little bactericidal activity | log cfu/pair of lungs ([1]; three doses (600 ug) intratracheally at 16 h intervals, 16 h after last treatment): 7.10 log cfu/pair of lungs | cfu/pair of lungs ([1]; three doses (600 ug) intratracheally at 16 h intervals, 16 h after last treatment, cfu counts < 30 not statistically significant): 1.25 × 10^7 cfu/pair of lungs | Conc in lungs ([2]; 0.25 h): 43 ug/pair of lungs | Conc in kidneys ([2]; 1 h): 25 ug/pair of kidneys | Conc in lungs ([2]; 1 h): 11 ug/pair of lungs | cfu/pair of lungs [3]: 1.07 × 10^6 cfu/pair of lungs | log cfu/pair of lungs [3]: 6.03 log cfu/pair of lungs
